Legend:
[1] = tested on: HeLa cells; assay: Uptake of cargo into cells pre-treated with Xfect
Description: Cells were fixed with 4% PFA and processed as described in methods. […] Values were normalized to the 6 h Xfect treated samples. Mean ± SD. n = 1000 cells. Representative images from three independent experiments are shown. Scale bar, 20 µm.
(a–d) HeLa cells were incubated with Xfect for indicated times then washed with PBS for three times and incubated with 30 nM SYTOX Red (a,b, Cy5 channel) or 200 nM YOYO-3 Iodide (c,d, Texas Red channel) for 20 min, and washed with PBS again. Cells were fixed with 4% PFA and processed as described in methods. […] Values were normalized to the 24 h Xfect treated samples. Mean ± SD. n = 1000 cells. Representative images from three independent experiments are shown. Scale bar, 20 µm.
cells.HeLa cells were incubated with Xfect for the indicated times, then washed with PBS
forthree times and incubated with 30 nM SYTOX Red (a, Cy5 channel) or 200 nM YOYO-3
Iodide (b, Texas Red channel) for 20 min, and washed with PBS again. Cells were fixed with
4% PFA and processed as described in methods. Representative images from three
independent experiments are shown. Scale bar, 20 µm. Images are normalized to saturation
atthe 24 h time point in order to show the cellular distribution of early time point samples.

[2] = tested on: HeLa cells; assay: Detergent-based cell permeabilization assay
Description: Figure 4 Internalized rEETI-II/Xfect is found in compartments that are resistant to detergent permeabilization. […] Cells were then incubated with PBS, 0.1% Triton X-100, 0.04% Saponin, 0.01% Saponin, or 25 μM Digitonin in PBS for 5 min at room temperature, washed and imaged. […] Mean ± SD. n = 1000 cells. Representative images from at least three independent experiments are shown. Scale bar, 20 μm.
For cell permeabilization experiments, HeLa cells were incubated with 5 μM rEETI-II-A488 with or without Xfect for 60 min, or transferrin (labeled with Alexa 555, 0.2 mg/ml) for 10 min, at 37 °C/5% CO2, washed three times with cold PBS. Cells were then fixed with 4% PFA for 20 min at room temperature, washed three times with PBS, and incubated with either PBS, or detergent containing PBS for 5 min at room temperature. Cells were washed again. […] Fluorescence images were captured on a high throughput ImageXpress Micro XL imaging system (Molecular Devices) and images were analyzed by MetaXpress 4.0. Fluorescence intensity values above a threshold defined using the DMSO-treated samples were measured and used to quantify integrated fluorescence intensity per cell or percentage of dye-positive cells. […] Cells were incubated with Hoechst 333421 (5 µg/ml in PBS) for 10 min and washed three times with PBS then imaged, analyzed as described above. […]

Molecule	uptake of cell impermeable dye into cells pre-treated with Xfect ([1]; HeLa cells pre-treated with Xfect 3 h, washed, then dye 20 min (SYTOX Red 30 nM; YOYO-3 Iodide 200 nM), fluorescence imaging)	uptake of dye into cells in the absence of Xfect preincubation ([1]; HeLa cells, no Xfect, dye 20 min (SYTOX Red 30 nM; YOYO-3 Iodide 200 nM), negative control)	internalized transferrin staining after detergent permeabilization [2]
C[n+]1c(C=CC=C2C=CN(CCC[N+](C)(C)CCC[N+](C)(C)CCCN3C=CC(=CC=Cc4oc5ccccc5[n+]4C)c4ccccc43)c3ccccc32)oc2ccccc21 [YOYO-3 Iodide]	observed to enter into cells	little to no uptake	
transferrin-Alexa555: transferrin labeled with Alexa 555, marker of early and recycling endosomes			resistant to detergent extraction

Source: article PMC6502800, “Visualizing the cellular route of entry of a cystine-knot peptide with Xfect transfection reagent by electron microscopy” (Scientific Reports, 2019)
